For data set [1], the target named is sites labeled by [125I]-E-IA-BF-PIPZE (σ1 receptors) (Mus musculus, UniProt O55242). The class given is binding.
The target in data set [2] is T1, σ1 receptors (Mus musculus, UniProt O55242). Nature of the data set: Competition binding against [3H]-PTZ in mouse brain membranes.
The target in the next data set is SERT (Mus musculus, UniProt Q60857). Nature of the data set: Secondary site spot test, [3H]-Paroxetine. The class given is binding.
A further data set has as its target Mu (μ) opioid receptor (Cavia porcellus, UniProt A0ACM8Q262). The experiment in a line: Secondary site spot test, [3H]-DAMGO. The class given is binding, guinea pig.
The target of data set [3] is T1, σ1 receptors. Nature of the data set: In vivo specific binding and blocking by pretreatment with σ receptor ligands. The settings on record: 2.5 μmol / kg i.v., mice.
The target of a further data set is DAT (Mus musculus, UniProt Q61327). Nature of the data set: Secondary site spot test, [125I]-RTI-121. The class given is binding.
Data set [4] deals with Kappa (κ) opioid receptor (Cavia porcellus, UniProt P41144). Nature of the data set: Secondary site spot test, [3H]-U69593. The class given is binding, guinea pig.
Data set [5] concerns the target T1, σ1 receptors. The experiment in a line: Regional brain distribution with blocking pretreatments. The class given is in vivo, CD-1 mouse. Conditions: 2.5 μmol / kg i.v., 60 min, nine regions.
For another data set, the target named is NET (Mus musculus, UniProt O55192). Nature of the data set: Secondary site spot test, [3H]-Nisoxetine. The format is binding.
The target in data set [6] is Delta (δ) opioid receptor (Mus musculus, UniProt P32300). Nature of the data set: Secondary site spot test, [3H]-Naltrindole. The class given is binding.
In data set [7] the target is T2, σ2 receptors (Mus musculus, UniProt Q8VD00).
T2 sequence (Q8VD00 1-176): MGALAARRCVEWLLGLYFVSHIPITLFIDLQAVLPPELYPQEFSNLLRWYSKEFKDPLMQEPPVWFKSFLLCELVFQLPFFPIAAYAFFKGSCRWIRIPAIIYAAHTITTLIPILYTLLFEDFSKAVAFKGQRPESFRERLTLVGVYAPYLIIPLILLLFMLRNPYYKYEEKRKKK
The experiment in a line: Competition binding against [3H]-DTG with PTZ mask in mouse brain membranes.

The target of data set [8] is T2, σ2 receptors. Conditions: read-out: Sigma-2, Ki; cited from earlier work.
The target of data set [9] is T1, σ1 receptors. The settings on record: cited from earlier work.
For data set [10], the system named is (−)-cocaine induced locomotor hyperactivity. The settings on record: cited from earlier work.

Read-outs that look alike come from different tables or passages of the source.

Sequence of sites labeled by [125I]-E-IA-BF-PIPZE (σ1 receptors) (O55242 whole entry): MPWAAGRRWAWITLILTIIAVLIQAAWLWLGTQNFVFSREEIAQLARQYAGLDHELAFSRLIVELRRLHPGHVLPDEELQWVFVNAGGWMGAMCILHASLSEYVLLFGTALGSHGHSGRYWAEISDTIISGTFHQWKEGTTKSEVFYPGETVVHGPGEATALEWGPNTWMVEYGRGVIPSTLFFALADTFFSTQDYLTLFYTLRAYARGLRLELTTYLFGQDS
T1 sequence (O55242 whole entry): as above
Sequence of Delta (δ) opioid receptor (P32300 whole entry): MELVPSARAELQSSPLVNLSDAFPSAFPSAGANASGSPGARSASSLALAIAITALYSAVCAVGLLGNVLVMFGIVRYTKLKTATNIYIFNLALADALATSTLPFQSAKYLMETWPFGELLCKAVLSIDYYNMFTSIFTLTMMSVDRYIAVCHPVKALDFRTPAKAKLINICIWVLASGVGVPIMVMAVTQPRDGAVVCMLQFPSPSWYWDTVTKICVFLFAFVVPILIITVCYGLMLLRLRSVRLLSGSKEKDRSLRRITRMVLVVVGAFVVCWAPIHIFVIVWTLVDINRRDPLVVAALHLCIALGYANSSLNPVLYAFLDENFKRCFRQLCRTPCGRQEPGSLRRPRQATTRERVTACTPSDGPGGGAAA
Sequence of SERT (Q60857 whole entry): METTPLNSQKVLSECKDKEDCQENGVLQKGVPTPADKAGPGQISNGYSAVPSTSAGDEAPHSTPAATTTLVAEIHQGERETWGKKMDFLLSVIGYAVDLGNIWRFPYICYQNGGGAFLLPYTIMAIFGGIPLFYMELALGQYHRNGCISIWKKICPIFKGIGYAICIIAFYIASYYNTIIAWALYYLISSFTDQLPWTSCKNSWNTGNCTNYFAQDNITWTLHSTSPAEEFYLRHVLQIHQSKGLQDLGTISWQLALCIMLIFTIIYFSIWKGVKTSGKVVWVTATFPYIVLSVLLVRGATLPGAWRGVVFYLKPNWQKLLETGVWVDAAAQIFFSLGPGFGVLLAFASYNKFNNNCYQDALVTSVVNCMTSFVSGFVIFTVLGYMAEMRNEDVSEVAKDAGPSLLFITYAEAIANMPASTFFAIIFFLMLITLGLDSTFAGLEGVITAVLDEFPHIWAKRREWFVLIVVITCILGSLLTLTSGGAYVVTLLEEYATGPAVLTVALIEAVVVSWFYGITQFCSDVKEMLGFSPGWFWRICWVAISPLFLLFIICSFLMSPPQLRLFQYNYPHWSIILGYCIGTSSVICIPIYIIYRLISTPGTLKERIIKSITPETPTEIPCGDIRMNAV
Sequence of NET (O55192 whole entry): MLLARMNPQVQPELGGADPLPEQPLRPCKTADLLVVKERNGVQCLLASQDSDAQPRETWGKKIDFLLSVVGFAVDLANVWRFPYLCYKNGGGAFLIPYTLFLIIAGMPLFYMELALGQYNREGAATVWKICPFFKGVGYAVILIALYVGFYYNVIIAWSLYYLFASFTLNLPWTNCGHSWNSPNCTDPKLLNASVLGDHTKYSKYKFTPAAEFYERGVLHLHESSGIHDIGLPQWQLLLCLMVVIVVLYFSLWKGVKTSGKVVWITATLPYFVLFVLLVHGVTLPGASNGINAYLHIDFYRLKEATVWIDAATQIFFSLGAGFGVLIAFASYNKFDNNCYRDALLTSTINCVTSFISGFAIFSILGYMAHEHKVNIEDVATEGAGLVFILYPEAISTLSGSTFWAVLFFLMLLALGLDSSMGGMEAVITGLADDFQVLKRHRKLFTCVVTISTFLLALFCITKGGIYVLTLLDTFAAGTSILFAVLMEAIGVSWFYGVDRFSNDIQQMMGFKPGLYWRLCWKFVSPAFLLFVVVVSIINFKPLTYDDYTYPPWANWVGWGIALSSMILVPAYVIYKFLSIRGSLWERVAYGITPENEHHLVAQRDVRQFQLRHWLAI
Sequence of Mu (μ) opioid receptor (A0ACM8Q262 1-400): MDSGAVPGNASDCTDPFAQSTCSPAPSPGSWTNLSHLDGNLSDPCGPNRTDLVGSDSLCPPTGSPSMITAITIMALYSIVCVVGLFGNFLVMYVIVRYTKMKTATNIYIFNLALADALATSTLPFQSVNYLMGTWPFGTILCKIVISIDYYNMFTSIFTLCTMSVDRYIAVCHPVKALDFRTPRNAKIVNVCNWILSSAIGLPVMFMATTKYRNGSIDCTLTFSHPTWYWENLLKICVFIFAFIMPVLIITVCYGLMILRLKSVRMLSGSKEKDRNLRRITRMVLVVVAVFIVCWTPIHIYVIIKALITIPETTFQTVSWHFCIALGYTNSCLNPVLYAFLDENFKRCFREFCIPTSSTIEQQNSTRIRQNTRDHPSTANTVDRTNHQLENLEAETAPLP
Sequence of DAT (Q61327 whole entry): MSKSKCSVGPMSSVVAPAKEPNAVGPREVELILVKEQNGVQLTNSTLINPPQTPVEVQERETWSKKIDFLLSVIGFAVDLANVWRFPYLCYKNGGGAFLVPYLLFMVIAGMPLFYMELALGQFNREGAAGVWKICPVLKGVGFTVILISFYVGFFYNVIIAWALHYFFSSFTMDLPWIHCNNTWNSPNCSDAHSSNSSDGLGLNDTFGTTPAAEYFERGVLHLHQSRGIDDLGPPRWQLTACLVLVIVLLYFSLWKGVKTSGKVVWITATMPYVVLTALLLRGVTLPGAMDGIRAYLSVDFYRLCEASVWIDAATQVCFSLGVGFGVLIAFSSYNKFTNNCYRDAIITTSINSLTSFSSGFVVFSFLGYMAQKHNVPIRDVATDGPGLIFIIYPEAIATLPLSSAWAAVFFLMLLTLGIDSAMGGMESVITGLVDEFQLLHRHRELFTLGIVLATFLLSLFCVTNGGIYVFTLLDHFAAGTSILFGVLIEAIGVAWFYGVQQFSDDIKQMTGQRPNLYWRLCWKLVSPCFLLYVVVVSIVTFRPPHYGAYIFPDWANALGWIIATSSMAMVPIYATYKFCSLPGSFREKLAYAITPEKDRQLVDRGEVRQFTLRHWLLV
Sequence of Kappa (κ) opioid receptor (P41144 whole entry): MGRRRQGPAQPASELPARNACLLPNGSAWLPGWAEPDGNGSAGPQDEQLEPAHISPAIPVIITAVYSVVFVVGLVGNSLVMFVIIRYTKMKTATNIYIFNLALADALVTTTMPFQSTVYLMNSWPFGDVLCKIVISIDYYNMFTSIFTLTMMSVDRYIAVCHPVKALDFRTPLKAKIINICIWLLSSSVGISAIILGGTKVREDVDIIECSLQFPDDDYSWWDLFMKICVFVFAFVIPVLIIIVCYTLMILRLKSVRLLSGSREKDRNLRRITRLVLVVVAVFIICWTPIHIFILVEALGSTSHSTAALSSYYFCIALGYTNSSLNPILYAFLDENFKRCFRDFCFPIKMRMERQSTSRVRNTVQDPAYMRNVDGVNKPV

As a reminder, the IC50 is the concentration needed to halve the response being measured. As a reminder, the Ki is a measure of affinity in units of concentration, obtained from inhibition or displacement. The Hill slope is the slope factor of the fitted curve. In general, inhibition refers to the relative decrease from the control value, in per cent. As to `I/C=C/CN1CCN(CCc2ccc3c(c2)CCO3)CC1` [E-IA-BF-PE-PIPZE, (E)-1-(2-(2,3-dihydrobenzofuran-5-yl)ethyl)-4-(iodoallyl)piperazine], the IC50 in data set [1] is 1.7 ± 0.2 nM; against SERT, more than 10000 nM; at Mu (μ) opioid receptor (read-out: IC50 Mu, [3H]-DAMGO 0.6 nM, guinea pig membranes) it was more than 5000 nM; at DAT, more than 10000 nM; in [4] it was more than 5000 nM; on NET, more than 10000 nM. For the same compound, the half-maximal inhibitory concentration (IC50) in data set [6] was more than 5000 nM. Besides, the inhibition constant Ki in [1] was 1.1 ± 0.1 nM; on σ1 receptors [2], 0.43 ± 0.03 nM; on σ2 receptors [7], 74.5 ± 4.44 nM. Further, the “Hill (nH)” value in [1] (means ± SEM (n = 3 – 6)) is given as 1.0 ± 0.1. This compound also came in with a Hill slope on σ1 receptors [2] ([3H]-PTZ competition) of −1.23 ± 0.04. For the same compound, the “Selectivity: σ2/σ1 (Ki ratio)” value on σ1 receptors [2] (σ2 Ki / σ1 Ki) amounted to 173. For the same compound, the inhibition at 10 µM at SERT (read-out: inhibition of specific radioligand binding, SERT) was not above 50%; at DAT (read-out: inhibition of specific radioligand binding, DAT), not above 50%; on NET (read-out: inhibition of specific radioligand binding, NET), not above 50%. For the same compound, the inhibition at 5 µM at Mu (μ) opioid receptor (read-out: inhibition of specific radioligand binding, μ) is not above 50%; in data set [4] (read-out: inhibition of specific radioligand binding, κ), not above 50%; in data set [6] (read-out: inhibition of specific radioligand binding, δ), not above 50%. Moreover, the “adverse effects or abnormal behaviors” value at σ1 receptors [3] is “No adverse effects or abnormal behaviors”. Further, the “reduction of radioligand uptake across brain regions” value at σ1 receptors [5] is listed as “over 92%”.

Take `COc1ccc(CCN2CCN(C/C=C/I)CC2)cc1OC` [E-IA-DM-PE-PIPZE, (E)-1-(2-(2,3-dimethoxy-5-yl)ethyl)-4-(iodoallyl)piperazine]: the Ki at σ2 receptors [8] is 1450 ± 220 nM; on σ1 receptors [9] (read-out: Sigma-1, Ki), 6.7 ± 0.9 nM. For the same compound, the “Selectivity: σ2/σ1” value at σ1 receptors [9] is 216. Moreover, the “effect on (−)-cocaine induced locomotor hyperactivity” value in [10] was “partially attenuates”.

The record behind these values is PMC5161541 (Nuclear medicine and biology, 2016).
